Results taken from ChEMBL document CHEMBL1909046, “DrugMatrix in vitro pharmacology data”.
pIC50: −log10 of the molar value.

Legend:
[1] = DRUGMATRIX: ATPase, Na+/K+ enzyme inhibition (substrate: ATP); format: tissue-based, Sus scrofa, Heart; conditions: Not Active = under 50% inhibition at 10 µM
Vasopressin V1a receptor = Vasopressin V1a receptor (Homo sapiens, UniProt P37288); format: cell membranes, Membrane; conditions: hek293; note: in other assays of this panel Not Active means under 50% inhibition at 10 µM
Sequence of Vasopressin V1a receptor (P37288 whole entry): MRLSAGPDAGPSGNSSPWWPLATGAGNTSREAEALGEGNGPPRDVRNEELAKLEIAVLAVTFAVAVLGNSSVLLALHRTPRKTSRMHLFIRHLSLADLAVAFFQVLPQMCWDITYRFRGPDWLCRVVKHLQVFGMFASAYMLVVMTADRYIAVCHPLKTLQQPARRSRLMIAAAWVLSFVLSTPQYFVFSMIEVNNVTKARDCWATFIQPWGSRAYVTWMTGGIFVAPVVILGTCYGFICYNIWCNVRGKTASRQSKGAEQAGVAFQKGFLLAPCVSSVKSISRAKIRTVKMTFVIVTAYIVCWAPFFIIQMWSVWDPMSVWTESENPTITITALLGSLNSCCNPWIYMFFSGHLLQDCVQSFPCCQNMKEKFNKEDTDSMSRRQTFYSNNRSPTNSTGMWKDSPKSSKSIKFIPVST

[2] = DRUGMATRIX: Glutamate, NMDA, Phencyclidine radioligand binding (ligand: [3H] TCP); format: cell membranes, Rattus norvegicus, Wistar, Cerebral cortex, Membrane; conditions: Not Active = under 50% inhibition at 10 µM
[3] = DRUGMATRIX: Nicotinic Acetylcholine radioligand binding (ligand: [125I] Epibatidine); format: cell membranes, Membrane; conditions: imr-32; Not Active = under 50% inhibition at 10 µM
[4] = DRUGMATRIX: Phorbol Ester radioligand binding (ligand: [3H] PDBu); format: cell membranes, Mus musculus, ICR, Brain, Membrane; conditions: Not Active = under 50% inhibition at 10 µM
Acetylcholinesterase = Acetylcholinesterase (Homo sapiens, UniProt P22303); experiment: DRUGMATRIX: Acetylcholinesterase enzyme inhibition (substrate: acetylthiocholine); format: cell-based, HEK293; conditions: hek293; Not Active = under 50% inhibition at 10 µM
Sequence of Acetylcholinesterase (P22303 whole entry): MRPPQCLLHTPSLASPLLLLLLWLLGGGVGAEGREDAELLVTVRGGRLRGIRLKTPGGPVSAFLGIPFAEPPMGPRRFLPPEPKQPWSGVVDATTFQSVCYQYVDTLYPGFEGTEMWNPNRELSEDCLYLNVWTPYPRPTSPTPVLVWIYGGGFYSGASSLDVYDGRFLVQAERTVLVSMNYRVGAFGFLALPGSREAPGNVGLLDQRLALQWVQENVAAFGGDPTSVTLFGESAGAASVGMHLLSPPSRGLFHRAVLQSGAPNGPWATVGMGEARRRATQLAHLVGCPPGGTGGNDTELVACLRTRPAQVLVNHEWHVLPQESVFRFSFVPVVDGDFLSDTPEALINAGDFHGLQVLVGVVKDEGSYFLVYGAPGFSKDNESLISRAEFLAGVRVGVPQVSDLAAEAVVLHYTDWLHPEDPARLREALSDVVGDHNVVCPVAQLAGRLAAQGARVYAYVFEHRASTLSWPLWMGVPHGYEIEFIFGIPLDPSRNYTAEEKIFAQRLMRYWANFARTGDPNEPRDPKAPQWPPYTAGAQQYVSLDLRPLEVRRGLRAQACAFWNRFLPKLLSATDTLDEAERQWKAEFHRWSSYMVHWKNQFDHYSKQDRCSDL

Adenosine receptor A1 = target: T1, Adenosine receptor A1 (Homo sapiens, UniProt P30542); format: cell membranes, CHO, Membrane; conditions: cho;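 note: radioligand binding assay at the adenosine A1 receptor, with DPCPX serving as the labelled ligand; in other assays of this panel Not Active means under 50% inhibition at 10 µM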
T1 sequence (P30542 whole entry): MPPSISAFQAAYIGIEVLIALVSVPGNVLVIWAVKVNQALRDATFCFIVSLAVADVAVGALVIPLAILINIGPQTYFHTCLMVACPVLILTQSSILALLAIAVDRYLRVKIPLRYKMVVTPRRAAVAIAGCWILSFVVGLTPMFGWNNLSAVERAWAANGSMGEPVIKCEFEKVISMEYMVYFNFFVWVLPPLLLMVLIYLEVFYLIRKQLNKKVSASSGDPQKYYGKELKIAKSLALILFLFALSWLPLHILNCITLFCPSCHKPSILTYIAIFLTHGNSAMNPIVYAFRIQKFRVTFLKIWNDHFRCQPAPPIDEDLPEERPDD

Cytochrome P450 1A2 = target: T2, Cytochrome P450 1A2 (Homo sapiens, UniProt P05177); conditions: bti-tn-5b1-4; note: in other assays of this panel Not Active means under 50% inhibition at 10 µM
T2 sequence (P05177 whole entry): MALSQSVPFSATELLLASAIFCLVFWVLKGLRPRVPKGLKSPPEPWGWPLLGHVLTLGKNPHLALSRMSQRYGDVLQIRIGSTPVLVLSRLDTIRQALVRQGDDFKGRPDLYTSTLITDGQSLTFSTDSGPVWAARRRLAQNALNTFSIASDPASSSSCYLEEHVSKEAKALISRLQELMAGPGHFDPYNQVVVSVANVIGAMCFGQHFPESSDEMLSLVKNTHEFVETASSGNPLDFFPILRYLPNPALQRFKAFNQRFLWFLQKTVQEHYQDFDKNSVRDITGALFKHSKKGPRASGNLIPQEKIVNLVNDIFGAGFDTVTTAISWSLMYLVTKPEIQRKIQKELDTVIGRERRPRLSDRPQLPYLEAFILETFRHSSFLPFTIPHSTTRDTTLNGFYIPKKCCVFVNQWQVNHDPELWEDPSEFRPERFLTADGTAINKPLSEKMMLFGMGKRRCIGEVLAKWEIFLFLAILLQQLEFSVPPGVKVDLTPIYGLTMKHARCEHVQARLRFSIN

Row | SMILES | IC50 [1] | Ki [1] | IC50 (Vasopressin V1a receptor) | IC50 [2] | Ki [2] | IC50 [3] | Ki [3] | IC50 [4] | Ki [4] | IC50 (Acetylcholinesterase) | IC50 (Adenosine receptor A1) | IC50 (Cytochrome P450 1A2) | Ki (Cytochrome P450 1A2) | pIC50 ([1]; read-out: IC50)
1 | COc1cc2c3cc1Oc1cc(ccc1O)C[C@@H]1c4c(cc(OC)c(O)c4Oc4ccc(cc4)C[C@@H]3N(C)CC2)CC[N+]1(C)C.[Cl-] | Not Active | Not Active | Not Active | Not Active | Not Active | Not Active | Not Active | Not Active | Not Active | Not Active | Not Active | Not Active | Not Active | 
2 | O=C1CC[C@@H](N2C(=O)c3ccccc3C2=O)C(=O)N1 | Not Active | Not Active | Not Active | Not Active | Not Active | Not Active | Not Active | Not Active | Not Active | Not Active | Not Active | Not Active | Not Active | 
3 | CN(C)c1nc(N(C)C)nc(N(C)C)n1 [ALTRETAMINE] | Not Active | Not Active | Not Active | Not Active | Not Active | Not Active | Not Active | Not Active | Not Active | Not Active | Not Active |  |  | 
4 | CNCCc1ccccn1 [BETAHISTINE] | Not Active | Not Active | Not Active | Not Active | Not Active | Not Active | Not Active | Not Active | Not Active | Not Active | Not Active | Not Active | Not Active | 
5 | CCCC1O[C@@H]2C[C@H]3[C@@H]4CCC5=CC(=O)C=C[C@]5(C)[C@H]4[C@@H](O)C[C@]3(C)[C@]2(C(=O)CO)O1 (some centres undefined) [BUDESONIDE] | Not Active | Not Active | Not Active | Not Active | Not Active | Not Active | Not Active | Not Active | Not Active | Not Active | Not Active | Not Active | Not Active | 
6 | CC(NC(C)(C)C)C(=O)c1cccc(Cl)c1 (centres undefined) [BUPROPION] | Not Active | Not Active | Not Active | Not Active | Not Active | Not Active | Not Active | Not Active | Not Active | Not Active | Not Active | Not Active | Not Active | 
7 | C[C@H](CS)C(=O)N1CCC[C@H]1C(=O)O [CAPTOPRIL] | Not Active | Not Active | Not Active | Not Active | Not Active | Not Active | Not Active | Not Active | Not Active | Not Active | Not Active | Not Active | Not Active | 
8 | CN(C)CCCN1c2ccccc2Sc2ccc(Cl)cc21 [CHLORPROMAZINE] | Not Active | Not Active | Not Active | Not Active | Not Active | Not Active | Not Active | Not Active | Not Active | Not Active | Not Active |  |  | 
9 | CC(C)(C)NCC(O)c1cc(Cl)c(N)c(Cl)c1 (centres undefined) [CLENBUTEROL] | Not Active | Not Active | Not Active | Not Active | Not Active | Not Active | Not Active | Not Active | Not Active | Not Active | Not Active | Not Active | Not Active | 
10 | CC(C)(Oc1ccc(Cl)cc1)C(=O)O [CLOFIBRIC ACID] | Not Active | Not Active | Not Active | Not Active | Not Active | Not Active | Not Active | Not Active | Not Active | Not Active | Not Active |  |  | 
11 | Clc1cccc(Cl)c1NC1=NCCN1 [CLONIDINE] | Not Active | Not Active | Not Active | Not Active | Not Active | Not Active | Not Active | Not Active | Not Active | Not Active | Not Active | Not Active | Not Active | 
12 | O=c1oc2ccccc2c(O)c1Cc1c(O)c2ccccc2oc1=O [DICUMAROL] | Not Active | Not Active | Not Active | Not Active | Not Active | Not Active | Not Active | Not Active | Not Active | Not Active | Not Active | Not Active | Not Active | 
13 | C[C@H]1O[C@@H](O[C@H]2[C@@H](O)C[C@H](O[C@H]3[C@@H](O)C[C@H](O[C@H]4CC[C@@]5(C)[C@H](CC[C@@H]6[C@@H]5C[C@@H](O)[C@]5(C)[C@@H](C7=CC(=O)OC7)CC[C@]65O)C4)O[C@@H]3C)O[C@@H]2C)C[C@H](O)[C@@H]1O [DIGOXIN] |  |  | Not Active | Not Active | Not Active | Not Active | Not Active | Not Active | Not Active | Not Active | Not Active | Not Active | Not Active | 5.78
14 | CC(=O)O[C@@]12CO[C@@H]1C[C@H](O)[C@@]1(C)C(=O)[C@H](O)C3=C(C)[C@@H](OC(=O)[C@H](O)[C@@H](NC(=O)OC(C)(C)C)c4ccccc4)C[C@@](O)([C@@H](OC(=O)c4ccccc4)[C@H]21)C3(C)C.O.O.O [DOCETAXEL] | Not Active | Not Active | Not Active | Not Active | Not Active | Not Active | Not Active | Not Active | Not Active | Not Active | Not Active | Not Active | Not Active | 
15 | COc1cc2nc(N3CCN(C(=O)C4COc5ccccc5O4)CC3)nc(N)c2cc1OC (centres undefined) [DOXAZOSIN] | Not Active | Not Active | Not Active | Not Active | Not Active | Not Active | Not Active | Not Active | Not Active | Not Active | Not Active | Not Active | Not Active | 
16 | C[C@H]1c2cccc(O)c2C(=O)C2=C(O)[C@]3(O)C(=O)C(C(N)=O)=C(O)[C@@H](N(C)C)[C@@H]3[C@@H](O)[C@@H]21.O [DOXYCYCLINE] | Not Active | Not Active | Not Active | Not Active | Not Active | Not Active | Not Active | Not Active | Not Active | Not Active | Not Active | Not Active | Not Active | 
17 | C[C@]12CC[C@@H]3c4ccc(O)cc4CC[C@H]3[C@@H]1CCC2=O [ESTRONE] | Not Active | Not Active | Not Active | Not Active | Not Active | Not Active | Not Active | Not Active | Not Active | Not Active | Not Active |  |  | 
18 | O=c1[nH]c(=O)n([C@H]2C[C@H](O)[C@@H](CO)O2)cc1I [IDOXURIDINE] | Not Active | Not Active | Not Active | Not Active | Not Active | Not Active | Not Active | Not Active | Not Active | Not Active | Not Active | Not Active | Not Active | 
19 | Nc1nc(N)nc(-c2cc(Cl)ccc2Cl)n1.O=C(O)/C=C\C(=O)O [IRSOGLADINE MALEATE] | Not Active | Not Active | Not Active | Not Active | Not Active | Not Active | Not Active | Not Active | Not Active | Not Active | Not Active | Not Active | Not Active | 
20 | CN(C)CCCN1c2ccccc2Sc2ccccc21 [PROMAZINE] | Not Active | Not Active | Not Active | Not Active | Not Active | Not Active | Not Active | Not Active | Not Active | Not Active | Not Active |  |  | 
